In one data set the test system is LNCaP. Put plainly: Anticancer activity against human LNCaP cells measured after 48 hrs by MTT assay. The class given is functional, cell-based. A general note: Formazan colour is commonly taken as a measure of viable cells.
The next data set concerns DU-145. The data set can be described thus: Anticancer activity against human DU-145 cells measured after 48 hrs by MTT assay. It counts as functional, cell-based. Conditions: DU-145, 48 h.
The next data set has as its system Ishikawa. Put plainly: Anticancer activity against human Ishikawa cells measured after 48 hrs by MTT assay. The class given is functional, cell-based.
The test system of data set [1] is MCF7. The data set can be described thus: Anticancer activity against human MCF7 cells measured after 48 hrs by MTT assay. Conditions: MCF7, 48 h. The class given is functional, cell-based.
The next data set relates to MDA-MB-231. The data set can be described thus: Anticancer activity against human MDA-MB-231 cells measured after 48 hrs by MTT assay. It counts as functional, cell-based. Conditions: MDA-MB-231, 48 h.
For data set [2], the system named is MCF7. The data set can be described thus: Anticancer activity against human MCF7 cells at 10 uM by MTT assay relative to control. The class given is functional.
For a further data set, the system named is B16-F10. Put plainly: Anticancer activity against mouse B16-F10 cells incubated for 48 hrs by MTT assay. The class given is functional, cell-based. The settings on record: B16-F10, 48 h.
The next data set concerns A549. The data set can be described thus: Anticancer activity against human A549 cells assessed as reduction in cell viability incubated for 48 hrs by MTT assay. The class given is functional, cell-based. Conditions: A549, 48 h.
Data set [3] concerns MCF7. The data set can be described thus: Anticancer activity against human MCF7 cells assessed as reduction in cell viability incubated for 48 hrs by MTT assay. It counts as functional, cell-based. The settings on record: MCF7, 48 h.
Data set [4] concerns MCF7. The data set can be described thus: Inhibition of cell proliferation in human MCF7 cells. It counts as functional, cell-based.
Data set [5] can be described thus: Inhibition of cell proliferation in human MCF-10A cells at 50 uM by MTT colorimetric cell viability assay relative to control. It counts as toxicity, cell-based.
The test system of data set [6] is HepG2. Put plainly: Cytotoxicity against human HepG2 cells incubated overnight by MTT assay. It counts as functional, cell-based.
A further data set deals with HCT-116. Put plainly: Cytotoxicity against human HCT-116 cells incubated overnight by MTT assay. The class given is functional, cell-based.
The target in data set [7] is T1, Amine oxidase [flavin-containing] A (Rattus norvegicus, UniProt P21396).
T1 sequence (P21396 whole entry): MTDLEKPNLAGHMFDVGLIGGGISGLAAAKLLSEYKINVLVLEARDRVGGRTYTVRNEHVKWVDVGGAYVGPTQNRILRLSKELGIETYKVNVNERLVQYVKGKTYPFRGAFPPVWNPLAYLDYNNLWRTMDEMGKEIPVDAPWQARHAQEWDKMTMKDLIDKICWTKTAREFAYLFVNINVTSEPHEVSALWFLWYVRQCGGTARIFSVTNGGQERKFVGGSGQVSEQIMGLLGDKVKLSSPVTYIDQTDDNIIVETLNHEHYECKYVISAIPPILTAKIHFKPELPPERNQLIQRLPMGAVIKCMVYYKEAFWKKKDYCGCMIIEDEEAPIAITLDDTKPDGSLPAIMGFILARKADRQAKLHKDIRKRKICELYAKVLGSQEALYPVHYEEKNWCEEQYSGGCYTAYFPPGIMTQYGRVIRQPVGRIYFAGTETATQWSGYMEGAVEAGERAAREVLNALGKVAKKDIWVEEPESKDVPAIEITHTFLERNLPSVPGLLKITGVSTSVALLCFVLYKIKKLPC
Put plainly: Inhibition of rat brain MAO-A relative to control. The class given is tissue-based.

The next data set deals with Ehrlich. Put plainly: Antitumor activity against mouse Ehrlich ascites carcinoma xenografted in mouse model assessed tumor growth inhibition relative to control. It counts as functional. More on the design: scale not given: the % may be the effect or the level left.
Another data set deals with Sarcoma-180. Put plainly: Antitumor activity against mouse Sarcoma-180 xenografted in mouse model assessed tumor growth inhibition relative to control. It counts as functional. More on the design: scale not given: the % may be the effect or the level left.
For data set [8], the system named is HepG2. Put plainly: Antiproliferative activity against human HepG2 cells by MTT assay. It counts as functional, cell-based.
Another data set has as its system L02. Put plainly: Antiproliferative activity against human L02 cells by MTT assay. The class given is functional, cell-based.

One may read the IC50 as the concentration that gives 50% inhibition. On to `O=C1NC2(C3=C(C(=O)C4C=CC=CC4C3=O)c3cc(Cl)ccc32)c2ccccc21` (centres undefined), for which the IC50 in the data set on LNCaP is 5.34 µM; in the data set with DU-145, 1.68 µM; in the data set with Ishikawa, 1.39 µM; with MCF7 [1], 5.11 µM; in the data set with MDA-MB-231 it was 17.6 µM.
For `O=C1NC2(C3=C(C(=O)C4C=CC=CC4C3=O)c3ccccc32)c2cc(Cl)c(Cl)cc21` (centres undefined), the IC50 turned out to be 1.1 µM with LNCaP; 2.13 µM in the data set with DU-145; 0.75 µM in the data set with Ishikawa; 1.02 µM in the data set with MCF7 [1]; 3.01 µM in the data set with MDA-MB-231.
A word on the inhibition: it is the change of the read-out against control, counted positive when it falls. In the case of `CC(=O)N1C(=O)C2(C(C#N)=C(N)Oc3n[nH]c(C)c32)c2ccccc21` (centres undefined), in the data set with MCF7 [2], 10 µM produced 26.5% inhibition.
As to `COC1=CC2(C=C(C(=O)Oc3c(F)cc(F)cc3F)c3cc(OC)cc(OC)c32)C(OC)=CC1=O` (centres undefined), the half-inhibitory concentration (IC50) in the data set with B16-F10 was found to be 9.63 µM; in the data set on A549 it was 10.4 µM; in the data set with MCF7 [3], 12.3 µM.
Broadly, the EC50 is the concentration giving half of the maximal effect. In turn, `O=C1Nc2ccccc2C12CCNC2c1cccc(F)c1` (centres undefined) displayed a concentration giving a half-maximal response (EC50) in the data set on MCF7 [4] of 6 µM. The compound further displayed an inhibition at 50 µM in data set [5] of 4.48%.
In the case of `O=C(/C=C/c1ccc(Br)cc1)[C@H]1[C@H](c2ccc(Br)cc2)C2CSCN2[C@]12C(=O)Nc1ccccc12` (some centres undefined), the 50% inhibitory concentration (IC50) is 0.8 µM in the data set with HepG2 [6] and 3 µM in the data set with HCT-116.
With `CCn1c(SCC(=O)Nc2cccc(C(F)(F)F)c2)nc2c(c1=O)C1(CCCCC1)Cc1ccccc1-2`, the “inhibition (INH)” value in data set [7] came to 15%. Further, the Activity in the data set on Ehrlich worked out at 70%; in the data set on Sarcoma-180 it was 42%.
As to `COC1=CC2(C=C(C(=O)NNc3ccc(OC(F)(F)F)cc3)c3cc(OC)cc(OC)c32)C(OC)=CC1=O` (centres undefined), the IC50 in the data set with B16-F10 turned out to be 19.3 µM; with A549, 17.9 µM; in the data set with MCF7 [3] it was 15.3 µM.
As to `O=C1NC2(C3=C(C(=O)C4C=CC=CC4C3=O)c3ccccc32)c2ccccc21` (centres undefined), the half-maximal inhibitory concentration (IC50) in the data set with LNCaP amounted to 0.67 µM; in the data set on DU-145, 2.18 µM; in the data set with Ishikawa, 1.9 µM; in the data set with MCF7 [1], 0.82 µM; in the data set with MDA-MB-231, 6.88 µM.
For the compound `O=C(/C=C/c1cccc(Br)c1)[C@H]1[C@H](c2cccc(Br)c2)C2CSCN2[C@]12C(=O)Nc1cc(Br)c(Br)cc12` (some centres undefined), the IC50 was 0.9 µM in the data set on HepG2 [6] and 1.57 µM in the data set on HCT-116.
`COc1cc(OC)c(C2NCCC23C(=O)Nc2ccccc23)cc1OC` (centres undefined): in the data set with MCF7 [4], the EC50 is 4.01 µM. Also, in data set [5], the inhibition at 50 µM turned out to be 0.8%.
Regarding `COC1=CC2(C=C(C(=O)Oc3cccc(F)c3F)c3cc(OC)cc(OC)c32)C(OC)=CC1=O` (centres undefined), the values for the IC50 in the data set with B16-F10, with A549 and with MCF7 [3] were 10.9 µM, 9.58 µM and 13.1 µM, respectively.
As for `O=C1C(=O)C2C(N=C3N=NNN3C23C(=O)Nc2c(Cl)cccc23)c2ccccc21` (centres undefined), the IC50 is 3.03 µM in the data set on HepG2 [8] and 49.5 µM in the data set with L02.
Take `O=C1C(=O)C2C(N=C3N=NNN3C23C(=O)Nc2c(C(F)(F)F)cccc23)c2ccccc21` (centres undefined): the results for the IC50 in the data set with HepG2 [8] and in the data set on L02 were 7.9 µM and 49.9 µM, respectively.
With `CCn1c(SCC(=O)Nc2ccccc2)nc2c(c1=O)C1(CCCCC1)Cc1ccccc1-2`, the “inhibition (INH)” value in [7] is 32%. For the same compound, the Activity in the data set with Ehrlich is 75%; with Sarcoma-180, 55%.
For the compound `CCOC(=O)c1[nH]nc2c1C1(C(=O)N(C(C)=O)c3ccccc31)C(C#N)=C(N)O2` (centres undefined), in the data set with MCF7 [2], the inhibition at 10 µM was 15.7%.

(Values after ChEMBL document CHEMBL5233269, “Anticancer potential of spirocompounds in medicinal chemistry: A pentennial expedition” (Eur J Med Chem, 2021).)
